Results on 3 molecules are retold here after PMC8763243, “Synthesis of Novel Suramin Analogs With Anti-Proliferative Activity via FGF1 and FGFRD2 Blockade” (Frontiers in Chemistry, 2022).

For data set [1], the system named is MCF-7 cells. The experiment in a line: WST-1 assay, FGF1-stimulated cell proliferation. The settings on record: serum-starved MCF-7, 100 nM FGF1, 100 nM, 500 nM and 1 µM of test substance, 48 h. It is filed as cell-based, human. As to the method:
(§1) The water-soluble tetrazolium salt (WST-1) assay was performed to assess the effects of the compounds on cell proliferation and cytotoxicity. DMEM/F12 containing 10% FBS was used for the cell culture, and incubation was performed in 5% CO2 till the logarithmic growth phase was achieved. On the day before the experiment, the cells were trypsinized and seeded in a 96-well plate at a density of 5000 cells/well. For the FGF1-stimulated cell proliferation assay, the cells were then incubated for 24 h in a serum-free medium containing 0.1% bovine serum albumin (BSA). Serum-starved cells with or without a specified concentration of suramin, 14, 15, 17, 18, 21, and FGFRD2 were stimulated with 100 nM of FGF1 again for 48 h. For the purpose of the cytotoxicity assay, the cells were treated with an increased concentration of suramin and compounds 14, 17, 15, 18, and 21 (Figure 6) for 48 h. Also, 1/10 of the volume of WST-1 cell reagent was inserted in every well and maintained at 37°C for another 4 h before harvesting. There was gentle agitation of the medium in the cell culture plate for 10 min using a shaker. A Synergy 2 microplate reader (BioTek Instruments, Inc., VT, United States) was used to measure the absorbance at 450 nm. The relative absorbance was compared with the control treatment to determine the relative cell number.
Cell proliferation was measured using the WST-1 assay. […]
Background: Tetrazolium dyes change colour on reduction, which living cells bring about.

A short description of data set [2]: WST-1 assay, cytotoxicity in tumorigenic cells. It is filed as cell-based, human. The settings on record: human; MCF-7 cells, 48 h, SigmaPlot; read-out: estimated IC50 (cytotoxicity). As to the method: as §1
(§2) […] […] The reason for the higher cytotoxicity was the presence of methyl groups on the suramin structure ([Martello et al., 2001]).
(§3) Suramin-induced neuropathy may depend on the effects on calcium (Ca^2+) homeostasis as a potential pathological mechanism, and the full or partial positive charge of the element when directly attached to the ring at each of the sulphonic groups (HSO3). These interactions exert a moderate to strong electron-withdrawing inductive effect, which may be responsible for the observed suramin cytotoxicity ([Prasetyaningrum et al., 2018]; [Von Der Ahe et al., 2018]). The cytotoxicity of the synthesized analogs was lower as there were methyl groups and no sulfonic acid groups attached to the suramin backbone. The IC50 values of the synthesized compounds in MCF-7 breast cancer cells were analyzed using SigmaPlot software.

Data set [3] deals with MCF-7 cells. The experiment in a line: WST-1 assay, cytotoxicity in tumorigenic cells. It counts as cell-based, human. As to conditions: for Mean (Blank 450) / Fold (mean) / Blank 450 / Fold: S8; for Fold (mean): relative to control; for Blank 450: single replicate absorbance; for Fold: single replicate relative to control; for cytotoxicity compared with suramin: MCF-7 cells, 1-100 µM, 48 h, especially at concentrations higher than 10 µM. As to the method:
as §1, §2, §3

Another data set has as its target T1, FGF1 (Homo sapiens, UniProt P05230).
T1 construct: made in house
The experiment in a line: Fluorescence spectroscopy binding constant of FGF1 and suramin derivatives. The settings on record: fluorescence quenching, 5 µM FGF1, non-linear regression with Stern–Volmer equation, pH 6.5. As to the method:
The binding constant Kd was calculated for FGF1 and the five derivatives in a buffer containing 10% D2O, 50 mM AMS, 20 mM phosphate buffer, and 50 mM NaCl at pH 6.5 using an F-2500 Hitachi fluorescence spectrophotometer.
[…] has tremendous significance for biochemical application because it provides valuable knowledge about the probability of quencher activity. The anti-mitogenic activity of the five compounds was achieved by the same mechanism in which suramin inhibits the mitogenic activity of FGF1. A non-linear regression curve was plotted for the relative intensities of activity versus drug concentration using the Stern–Volmer equation (Eq. 1). log(F0−F)/F=logK+nlog[Q], (1)
where F0 represents the fluorescence intensity in the absence of the compounds, and F represents the fluorescence intensity in the presence of the [Q] concentration of the compounds.
Increasing concentrations of these five suramin derivatives were added to a solution containing 5 µM FGF1. A reduction in the fluorescence intensity was reported for all five suramin derivatives. The Stern–Volmer equation was used to calculate the binding constant between FGF1 and compounds 14, 15, 17, 18, and 21 for relative intensities versus the total concentration in a non-linear regression curve.

Data set [4] in a line: WST-1 assay, cytotoxicity in normal breast epithelial cell line (non-tumorigenic). The settings on record: human; non-tumorigenic MCF-10A cells; read-out: estimated IC50 (cytotoxicity). It counts as cell-based. As to the method: as §1
In order to gain some insight about the selectivity of the compounds between tumorigenic and non-tumorigenic cells, the cytotoxicity was also being evaluated against normal breast cell lines by examining the cytotoxicity of suramin and its derivatives, compounds 15, 18, and 21, in a normal breast epithelial cell line (non-tumorigenic), MCF-10A. […] Compared to their cytotoxicity in tumorigenic MCF-7 cells (Figure 6), the estimated IC50 values in MCF-10A were higher than those in MCF-7 cells. […] However, the estimated IC50 value of suramin and its derivatives in both non-tumorigenic MCF-10A and tumorigenic MCF-7 cells were over 100 μM. The effective concentrations of suramin and its derivatives to attenuate FGF1-stimulated cell proliferation in MCF-7 cells were around 1 μM (Figure 5), which is non-toxic concentration to both MCF-7 cells and MCF-10A cells. […] Therefore, in addition to the specificity of each drug, the selectivity of suramin and its derivatives to disrupt the FGF1/FGFR-mediated breast cancer growth might rely on the overexpression or amplification of FGFR2 in breast cancer cells, but not in normal cells, and the secreted FGF1 ligand by autocrine or paracrine effects from cancer cells or their surrounding stroma cells or adipocytes (tumor microenvironment). The statistical data for the cytotoxicity are shown in Supplementary Figure S8.

Molecules are shown by their SMILES. Values joined by “and” are separate entries in the source; they are usually repeats but may differ in a detail not shown here. Identical values can stand only once.

T1 sequence (P05230 whole entry): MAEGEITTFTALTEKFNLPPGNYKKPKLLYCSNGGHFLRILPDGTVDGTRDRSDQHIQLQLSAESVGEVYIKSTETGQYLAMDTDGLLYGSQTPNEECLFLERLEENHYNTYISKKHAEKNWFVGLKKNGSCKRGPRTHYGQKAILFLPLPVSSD

`O=C(Nc1ccc(C(=O)Nc2cccc3cc(S(=O)(=O)O)ccc23)cc1)Nc1ccc(C(=O)Nc2cccc3cc(S(=O)(=O)O)ccc23)cc1` [Compound 14, Sodium 5,5'-((4,4'-(carbonylbis (azanediyl))bis (benzoyl))bis (azanediyl)) bis (naphthalene-2-sulfonate)]: the “effect on FGF1-stimulated cell proliferation” value with MCF-7 cells [1] was “more potent inhibitory effects”. In data set [2], the IC50 (in general, the midpoint of a concentration-inhibition curve) at 48 h was greater than 100 µM. Besides, the “Mean (Blank 450)” value with MCF-7 cells [3] (0.5 uM) is listed as 0.233; in the data set on MCF-7 cells [3] (1 uM), 0.231; with MCF-7 cells [3] (5 uM), 0.225; in the data set on MCF-7 cells [3] (10 uM), 0.211; in the data set with MCF-7 cells [3] (100 uM), 0.198. The “Fold (mean)” value in the data set on MCF-7 cells [3] (0.5 uM) stood at 1.04; in the data set on MCF-7 cells [3] (1 uM), 1.03; in the data set on MCF-7 cells [3] (5 uM), 1.01; with MCF-7 cells [3] (10 uM), 0.95; in the data set on MCF-7 cells [3] (100 uM) it was 0.89. Further, the “Blank 450” value with MCF-7 cells [3] (0.5 uM) is 0.228 and 0.253 and 0.244 and 0.205; in the data set with MCF-7 cells [3] (1 uM) it was 0.248 and 0.227 and 0.205 and 0.242; with MCF-7 cells [3] (5 uM), 0.219 and 0.241 and 0.23 and 0.208; in the data set on MCF-7 cells [3] (10 uM), 0.206 and 0.193 and 0.225 and 0.218; with MCF-7 cells [3] (100 uM), 0.209 and 0.195 and 0.181 and 0.208. Further, the Fold with MCF-7 cells [3] (0.5 uM) is 1.024 and 1.136 and 1.095 and 0.920; with MCF-7 cells [3] (1 uM), 1.113 and 1.019 and 0.920 and 1.086; in the data set with MCF-7 cells [3] (5 uM), 0.983 and 1.082 and 1.033 and 0.934; with MCF-7 cells [3] (10 uM) it was 0.925 and 0.866 and 1.010 and 0.979; with MCF-7 cells [3] (100 uM), 0.938 and 0.875 and 0.813 and 0.934. Further, the “cytotoxicity compared with suramin” value in the data set with MCF-7 cells [3] is listed as “less toxic”. Also, binding on FGF1 was put at a Kd of 13.7 µM.
For the molecule `Cc1ccc(C(=O)Nc2ccc(S(=O)(=O)O)c3cc(S(=O)(=O)O)cc(S(=O)(=O)O)c23)cc1NC(=O)c1cccc(NC(=O)Nc2cccc(C(=O)Nc3cc(C(=O)Nc4ccc(S(=O)(=O)O)c5cc(S(=O)(=O)O)cc(S(=O)(=O)O)c45)ccc3C)c2)c1` [suramin], the results for the IC50 at 48 h in data set [4] and in data set [2] were 222 ± 2.4 µM and greater than 100 µM, respectively. For the same molecule, the “Mean (Blank 450)” value in the data set with MCF-7 cells [3] (1 uM) is 1.211; with MCF-7 cells [3] (5 uM), 1.160; with MCF-7 cells [3] (10 uM), 1.116; with MCF-7 cells [3] (50 uM) it was 1.004; in the data set on MCF-7 cells [3] (100 uM), 0.817. Also, the “Fold (mean)” value with MCF-7 cells [3] (1 uM) is 1.04; in the data set with MCF-7 cells [3] (5 uM), 1.00; in the data set with MCF-7 cells [3] (10 uM), 0.96; in the data set on MCF-7 cells [3] (50 uM), 0.86; with MCF-7 cells [3] (100 uM) it was 0.70. The “Blank 450” value was 1.289 and 1.186 and 1.173 and 1.197 in the data set with MCF-7 cells [3] (1 uM); 1.137 and 1.217 and 1.147 and 1.138 in the data set with MCF-7 cells [3] (5 uM); 1.187 and 1.064 and 1.159 and 1.052 in the data set on MCF-7 cells [3] (10 uM); 0.936 and 0.988 and 1.088 and 1.004 with MCF-7 cells [3] (50 uM); 0.795 and 0.82 and 0.838 and 0.816 with MCF-7 cells [3] (100 uM). Also, the Fold is 1.106 and 1.018 and 1.007 and 1.027 in the data set on MCF-7 cells [3] (1 uM); 0.976 and 1.044 and 0.984 and 0.977 with MCF-7 cells [3] (5 uM); 1.019 and 0.913 and 0.995 and 0.903 in the data set with MCF-7 cells [3] (10 uM); 0.803 and 0.848 and 0.934 and 0.862 in the data set on MCF-7 cells [3] (50 uM); 0.682 and 0.704 and 0.719 and 0.700 with MCF-7 cells [3] (100 uM). Besides, in the data set with MCF-7 cells [3], the “cytotoxicity compared with suramin” value was “highest among all the analogs”.
In the case of `O=C(Nc1ccc(C(=O)Nc2cc(S(=O)(=O)O)cc3cc(S(=O)(=O)O)cc(S(=O)(=O)O)c23)s1)Nc1ccc(C(=O)Nc2cc(S(=O)(=O)O)cc3cc(S(=O)(=O)O)cc(S(=O)(=O)O)c23)s1` [Compound 21, Sodium 8,8'-((5,5'-(carbonylbis (azanediyl))bis (thiophene-5,2-diyl-2-carbonyl))bis (azanediyl)) bis (naphthalene-1,3,6-trisulfonate)], the IC50 at 48 h is 628 ± 1.45 µM in data set [4] and greater than 100 µM in data set [2]. Further, the “Mean (Blank 450)” value was 1.167 in the data set with MCF-7 cells [3] (1 uM); 1.178 with MCF-7 cells [3] (5 uM); 1.163 with MCF-7 cells [3] (10 uM); 1.124 with MCF-7 cells [3] (50 uM); 1.021 in the data set on MCF-7 cells [3] (100 uM). Besides, the “Fold (mean)” value in the data set with MCF-7 cells [3] (1 uM) is reported as 1.00; in the data set on MCF-7 cells [3] (5 uM), 1.01; in the data set with MCF-7 cells [3] (10 uM), 1.00; with MCF-7 cells [3] (50 uM) it was 0.96; in the data set with MCF-7 cells [3] (100 uM) it was 0.88. Further, the “Blank 450” value with MCF-7 cells [3] (1 uM) is 1.107 and 1.215 and 1.169 and 1.177; in the data set on MCF-7 cells [3] (5 uM), 1.145 and 1.151 and 1.183 and 1.233; in the data set with MCF-7 cells [3] (10 uM) it was 1.136 and 1.167 and 1.187 and 1.163; in the data set on MCF-7 cells [3] (50 uM), 1.137 and 1.128 and 1.113 and 1.119; in the data set on MCF-7 cells [3] (100 uM), 1.046 and 1.075 and 0.916. In addition, the Fold was 0.950 and 1.043 and 1.003 and 1.010 in the data set with MCF-7 cells [3] (1 uM); 0.983 and 0.988 and 1.015 and 1.058 in the data set on MCF-7 cells [3] (5 uM); 0.975 and 1.002 and 1.019 and 0.998 in the data set on MCF-7 cells [3] (10 uM); 0.976 and 0.968 and 0.955 and 0.960 in the data set on MCF-7 cells [3] (50 uM); 0.898 and 0.923 and 0.786 in the data set with MCF-7 cells [3] (100 uM). For the same molecule, the “cytotoxicity compared with suramin” value in the data set on MCF-7 cells [3] is on record as “less toxic”. In addition, the affinity at FGF1, expressed as Kd, was 15.9 µM.
